# Experiments:
# sGC α1/β1 heterodimer = sGC α1/β1 heterodimer (Homo sapiens (Human), UniProt Q02108+Q02153); test: Cell-based sGC functional assay (cyclic GMP assay for sGC activator: CASA assay); settings: CHO-K1/sGC cells; for Emax: CHO-K1, activity expressed as percentage of compound A (standard), read-out: % Activation; for EC50: inflection point, 4P fit, read-out: IP
# How it was run: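 CHO-K1 cells stably expressing human sGC α1/β1 were pre-incubated 30 min at 25° C with or without 1 μM DETA-NO, then exposed to compound for 1 hr at 37° C with 0.5 mM IBMX and 2.5% DMSO final. Intracellular cGMP was measured by HTRF, expressed as % of reference sGC-HDA maximum; inflection point and maximum fold induction came from 4-parameter fits.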
# [1] = target: human recombinant sGC enzyme (Homo sapiens (Human), UniProt Q02108+Q02153); test: Size Exclusion Chromatography (SEC) competition binding assay using [3H] Ex-77B as the radioligand; settings: [3H] Ex-77B radioligand, 24 hours at 37° C.
# How it was run: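 Recombinant human sGC binding measured by competition against tritiated Ex-77B radioligand, with non-specific binding defined by 1 μM unlabeled Ex-77B.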
SMILES,Emax (sGC α1/β1 heterodimer) [%],EC50 (sGC α1/β1 heterodimer) [nM],Ki [1] [nM]
"CC(C)(Cc1csc([C@]2(C)C(=O)Nc3nc(-c4nn(Cc5ccccc5F)c5ncc(F)cc45)nc(N)c32)n1)C(=O)O [Example 91B, (S)-3-(2-{4-amino-2-[5-fluoro-1-(2-fluorobenzyl)-1H-pyrazolo[3,4-b]pyridin-3-yl]-5-methyl-6-oxo-6,7-dihydro-5H-pyrrolo[2,3-d]pyrimidin-5-yl}-1,3-thiazol-4-yl)-2,2-dimethylpropanoic acid]",123,132,0.18
"CC1(c2nc(-c3cccc(C(=O)O)c3)cs2)C(=O)Nc2nc(-c3nn(CCC(F)(F)C(F)(F)F)c4cc(Cl)ccc34)nc(N)c21 (stereo not drawn) [Example 93A, 3-(2-{4-amino-2-[6-chloro-1-(3,3,4,4,4-pentafluorobutyl)-1H-indazol-3-yl]-5-methyl-6-oxo-6,7-dihydro-5H-pyrrolo[2,3-d]pyrimidin-5-yl}-1,3-thiazol-4-yl)benzoic acid]",63,575,0.602
"CC(C)(Cc1csc([C@]2(C)C(=O)Nc3nc(-c4nn(CCC(F)(F)C(F)(F)F)c5ncccc45)nc(N)c32)n1)C(=O)NO [Example 97B, (S)-3-(2-{4-Amino-5-methyl-6-oxo-2-[1-(3,3,4,4,4-pentafluorobutyl)-1H-pyrazolo[3,4-b]pyridin-3-yl]-6,7-dihydro-5H-pyrrolo[2,3-d]pyrimidin-5-yl}-1,3-thiazol-4-yl)-N-hydroxy-2,2-dimethylpropanamide]",122,1150,0.799
"CC1(c2nn(CC(=O)O)c(=O)o2)C(=O)Nc2nc(-c3nn(CCC(F)(F)C(F)(F)F)c4cc(Cl)ccc34)nc(N)c21 (stereo not drawn) [Example 98A, [5-{4-Amino-2-[6-chloro-1-(3,3,4,4,4-pentafluorobutyl)-1H-indazol-3-yl]-5-methyl-6-oxo-6,7-dihydro-5H-pyrrolo[2,3-d]pyrimidin-5-yl}-2-oxo-1,3,4-oxadiazol-3(2H)-yl]acetic acid]",83,254,0.395
"CC(C)(NC(=O)CCc1ccc([C@]2(C)C(=O)Nc3nc(-c4nn(Cc5ccccc5F)c5ncccc45)nc(N)c32)cc1)C(=O)O [Example 101B, (S)-2-(3-(4-{4-amino-2-[1-(2-fluorobenzyl)-1H-pyrazolo[3,4-b]pyridin-3-yl]-5-methyl-6-oxo-6,7-dihydro-5H-pyrrolo[2,3-d]pyrimidin-5-yl}phenyl)propanamido)-2-methylpropanoic acid]",111,2340,0.026
"CC[C@H](NC(=O)CCc1ccc([C@]2(C)C(=O)Nc3nc(-c4nn(Cc5ccccc5F)c5ncccc45)nc(N)c32)cc1)C(=O)O [Example 105B, (5S,2S)-2-(3-(4-{4-amino-2-[1-(2-fluorobenzyl)-1H-pyrazolo[3,4-b]pyridin-3-yl]-5-methyl-6-oxo-6,7-dihydro-5H-pyrrolo[2,3-d]pyrimidin-5-yl}phenyl)propanamido)butanoic acid]",97,2160,0.042
"C[C@@]1(c2ccc(CCC(=O)NCc3nn[nH]n3)cc2)C(=O)Nc2nc(-c3nn(Cc4ccccc4F)c4ncccc34)nc(N)c21 [Example 108B, (S)—N-((2H-Tetrazol-5-yl)methyl)-3-(4-{4-amino-2-[1-(2-fluorobenzyl)-1H-pyrazolo[3,4-b]pyridin-3-yl]-5-methyl-6-oxo-6,7-dihydro-5H-pyrrolo[2,3-d]pyrimidin-5-yl}phenyl)propanamide]",122,842,0.056
"CC1(c2cnn(CCC(=O)O)n2)C(=O)Nc2nc(-c3nn(CCC(F)(F)C(F)(F)F)c4ncccc34)nc(N)c21 (stereo not drawn) [Example 109B, 3-(4-{4-Amino-5-methyl-6-oxo-2-[1-(3,3,4,4,4-pentafluorobutyl)-1H-pyrazolo[3,4-b]pyridin-3-yl]-6,7-dihydro-5H-pyrrolo[2,3-d]pyrimidin-5-yl}-2H-1,2,3-triazol-2-yl)propanoic acid]",78,1660,2
"C[C@@]1(c2ccc(CCC(=O)O)cc2)C(=O)Nc2nc(-c3nn(Cc4ccccc4F)c4cc(Cl)c(O)cc34)nc(N)c21 [Example 110B, (S)-3-(4-{4-Amino-2-[6-chloro-1-(2-fluorobenzyl)-5-hydroxy-1H-indazol-3-yl]-5-methyl-6-oxo-6,7-dihydro-5H-pyrrolo[2,3-d]pyrimidin-5-yl}phenyl)propanoic acid]",78,1130,0.361
"CC1(c2ccc(CC(=O)O)cc2)C(=O)Nc2nc(-c3nn(Cc4ccccc4F)c4ncccc34)nc(N)c21 (stereo not drawn) [Example 114A, (4-{4-Amino-2-[1-(2-fluorobenzyl)-1H-pyrazolo[3,4-b]pyridin-3-yl]-5-methyl-6-oxo-6,7-dihydro-5H-pyrrolo[2,3-d]pyrimidin-5-yl}phenyl)acetic acid]",108,1340,0.092
"CC1(c2ccc(CCCC(=O)O)cc2)C(=O)Nc2nc(-c3nn(CCC(F)(F)C(F)(F)F)c4ncccc34)nc(N)c21 (stereo not drawn) [Example 116A, 4-(4-{4-amino-5-methyl-6-oxo-2-[1-(3,3,4,4,4-pentafluorobutyl)-1H-pyrazolo[3,4-b]pyridin-3-yl)-6,7-dihydro-5H-pyrrolo[2,3-d]pyrimidin-5-yl}phenyl)butanoic acid]",78,608,0.296
"CC1(c2ccc(CCC(=O)O)c(C#N)c2)C(=O)Nc2nc(-c3nn(CCC(F)(F)C(F)(F)F)c4cc(Cl)ccc34)nc(N)c21 (stereo not drawn) [Example 120B, 3-(4-{4-Amino-2-[6-chloro-1-(3,3,4,4,4-pentafluorobutyl)-1H-indazol-3-yl]-5-methyl-6-oxo-6,7-dihydro-5H-pyrrolo[2,3-d]pyrimidin-5-yl}-2-cyanophenyl)propanoic acid]",127,1930,0.41
"CC1(c2ccc(CCC(=O)O)c(O)c2)C(=O)Nc2nc(-c3nn(CCC(F)(F)C(F)(F)F)c4cc(Cl)ccc34)nc(N)c21 (stereo not drawn) [Example 122B, 3-(4-{4-Amino-2-[6-chloro-1-(3,3,4,4,4-pentafluorobutyl)-1H-indazol-3-yl]-5-methyl-6-oxo-6,7-dihydro-5H-pyrrolo[2,3-d]pyrimidin-5-yl}-2-hydroxyphenyl)propanoic acid]",115,895,0.326
"CC(C)(Cc1nc(C2(C)C(=O)Nc3nc(-c4nn(Cc5ccccc5F)c5cc(Cl)ccc45)nc(N)c32)co1)C(=O)O (stereo not drawn) [Example 128A, 3-(4-{4-amino-2-[6-chloro-1-(2-fluorobenzyl)-1H-indazol-3-yl]-5-methyl-6-oxo-6,7-dihydro-5H-pyrrolo[2,3-d]pyrimidin-5-yl}-1,3-oxazol-2-yl)-2,2-dimethylpropanoic acid]",117,137,0.111

# Further molecules by falling EC50 (sGC α1/β1 heterodimer), results first:
Emax (sGC α1/β1 heterodimer) [%],EC50 (sGC α1/β1 heterodimer) [nM],Ki [1] [nM],SMILES
86,9250,1.11,"CCCCn1nc(-c2nc(N)c3c(n2)NC(=O)[C@@]3(C)c2ccc(CCC(=O)O)cc2)c2ccc(C)nc21 [Example 111B, (S)-3-{4-{4-amino-2-(1-butyl-6-methyl-1H-pyrazolo[3,4-b]pyridin-3-yl)-5-methyl-6-oxo-6,7-dihydro-5H-pyrrolo[2,3-d]pyrimidin-5-yl}phenyl}propanoic acid]"
86,3510,0.166,"CC1(c2ccc(CC(=O)O)cc2)C(=O)Nc2nc(-c3nn(CCC(F)(F)C(F)(F)F)c4ncccc34)nc(N)c21 (stereo not drawn) [Example 118A, 2-(4-{4-amino-5-methyl-6-oxo-2-[1-(3,3,4,4,4-pentafluorobutyl)-1H-pyrazolo[3,4-b]pyridin-3-yl]-6,7-dihydro-5H-pyrrolo[2,3-d]pyrimidin-5-yl}phenyl)acetic acid]"
104,2950,0.045,"C[C@H](NC(=O)CCc1ccc([C@]2(C)C(=O)Nc3nc(-c4nn(Cc5ccccc5F)c5ncccc45)nc(N)c32)cc1)C(=O)O [Example 103B, (5S)-(3-(4-{4-amino-2-[1-(2-fluorobenzyl)-1H-pyrazolo[3,4-b]pyridin-3-yl]-5-methyl-6-oxo-6,7-dihydro-5H-pyrrolo[2,3-d]pyrimidin-5-yl}phenyl)propanoyl)-L-alanine]"
109,1800,0.039,"C[C@@]1(c2ccc(CCC(=O)NCC(=O)O)cc2)C(=O)Nc2nc(-c3nn(Cc4ccccc4F)c4ncccc34)nc(N)c21 [Example 100B, (S)-(3-(4-{4-Amino-2-[1-(2-fluorobenzyl)-1H-pyrazolo[3,4-b]pyridin-3-yl]-5-methyl-6-oxo-6,7-dihydro-5H-pyrrolo[2,3-d]pyrimidin-5-yl}phenyl)propanoyl)glycine]"
70,1500,0.058,"C[C@@]1(c2ccc(CCC(=O)N[C@H](CO)C(=O)O)cc2)C(=O)Nc2nc(-c3nn(Cc4ccccc4F)c4ncccc34)nc(N)c21 [Example 106B, (5S)-(3-(4-{4-amino-2-[1-(2-fluorobenzyl)-1H-pyrazolo[3,4-b]pyridin-3-yl]-5-methyl-6-oxo-6,7-dihydro-5H-pyrrolo[2,3-d]pyrimidin-5-yl}phenyl)propanoyl)-D-serine]"
89,568,0.064,"CC1(c2ccc(CCCC(=O)O)cc2)C(=O)Nc2nc(-c3nn(Cc4ccccc4F)c4ncccc34)nc(N)c21 (stereo not drawn) [Example 113B, 4-(4-{4-Amino-2-[1-(2-fluorobenzyl)-1H-pyrazolo[3,4-b]pyridin-3-yl]-5-methyl-6-oxo-6,7-dihydro-5H-pyrrolo[2,3-d]pyrimidin-5-yl}phenyl)butanoic acid]"
